In publication PMC5696480, “Azole sensitivity in Leptosphaeria pathogens of oilseed rape: the role of lanosterol 14α-demethylase” (Scientific Reports, 2017):

What was measured:
Experiment in all cases: growth inhibition of complemented yeast YUG37::LbCYP51B, absorbance at […] nm
Type in all cases: cell-based, Plenodomus biglobosus (Leptosphaeria biglobosa)
Conditions in all cases: whole-cell growth; SD GAL + RAF with doxycycline (native CYP51 repressed), 30 °C, 6 days; SD of two biological replicates
LbCYP51B [1] = system: T1, LbCYP51B
T1 construct: gene CYP51B; protein identical in all 8 isolates; gene 1642 bp with one 58 bp intron

LbCYP51B [2] = system: T1, LbCYP51B; remark: listed apart in the source
LbCYP51B [3] = system: T1, LbCYP51B; remark: listed apart in the source

Structure (SMILES): C[Si](Cn1cncn1)(c1ccc(F)cc1)c1ccc(F)cc1 [flusilazole]
- Flusilazole (LbCYP51B [1]): 0.032 (0.0056) µg ml^−1

Structure (SMILES): OC(Cc1ccccc1Cl)(Cn1cncn1)C1(Cl)CC1 (stereo not drawn) [prothioconazole-desthio]
- Prothioconazole-desthio (LbCYP51B [2]): 0.0004 (0.0002) µg ml^−1

Structure (SMILES): CC(C)(C)C(O)(CCc1ccc(Cl)cc1)Cn1cncn1 (stereo not drawn) [tebuconazole]
- Tebuconazole (LbCYP51B [3]): 0.0062 (0.0005) µg ml^−1
